Assay [1] addresses T1, Acetylcholinesterase (AchE) (Electrophorus electricus, UniProt O42275).
T1 construct: purchased Sigma-Aldrich Type VI-S (catalogue number not given)
In words: Amperometric activity assay of immobilized AchE electrode with 4-acetoxyphenol (steady state current at 0.35 V). The note with it: substrate 4-acetoxyphenol. It is filed as biochemical, Electrophorus electricus (electric eel). The protocol: Acetylcholinesterase (E.C. 3.1.1.7) Type VI-S from Electrophorus electricus (electric eel) with activity of 217 U mg^−1 protein, was purchased from Sigma-Aldrich. 4-Acetoxyphenol was purchased from Combi-Blocks (San Diego, Calif., USA). All other chemicals were purchased from Sigma-Aldrich (reagent grade) and used as received.
A mixture of BSA and AchE (containing 0.50 μg, or 0.11 U of the AchE, 8 μg of BSA in 10 μl of 0.06 M phosphate, pH 7.0) was spread on the working electrode of carbon SPE (RRPE1002C). The proteins were deposited on the electrode surface by air drying, and then crosslinked by adding 10 μl of 0.0021% of glutaraldehyde solution in water. The electrode was air dried at room temperature for 16 h to complete the crosslinking. To hydrate the sensor, it was stored in 0.1 M Tris-HCl, pH 7.0 for >24 h at room temperature before use.
Electrochemical evaluations were carried out in the low volume SPE cell (Pine Research Instrumentation, Durham, N.C., USA), and the conditions controlled by a DY2013 Potentiostat with DY2000 software (Digi-Ivy, Inc. Austin, Tex., USA). The working potential was set with the Ag/AgCl electrode on the SPE as the reference. […]
All evaluations were carried out at 22±2° C. The current in amperometric determination was recorded for 150 s. […] The average of the readings between 120 s and 150 s was used as the steady-state current. […]

In assay [2] the target is T1, Acetylcholinesterase (AchE). In words: Speciation of As(III)/As(V) mixtures with the AchE sensor versus ICP-AES. It counts as biochemical, Electrophorus electricus (electric eel). The note with it: 5 μM As(V) mixed with 0-20 μM As(III), 0.1 M Tris-HCl pH 8.0.
Assay [3] shares this target. It is filed as biochemical, Electrophorus electricus (electric eel).
The nature of assay [4]: Hydrolase activity of commercial enzymes with 4-acetoxyphenol as substrate. It counts as biochemical. The text has this: Instead of, or in addition to, AchE, the preferred biosensors of the present subject matter can utilize a wide range of enzyme(s). Table 1 set forth below lists a representative list of enzymes suitable for use in the biosensors of the present subject matter. The preferred biosensors can utilize one or more of these enzyme(s) instead of, or in addition to, AchE. It is also contemplated that other enzyme(s) could potentially be used in the biosensors of the present subject matter.

“And” between values parts separate entries of the source, which are not always exact repeats. Equal values may be shown once.

T1 sequence (O42275 24-633): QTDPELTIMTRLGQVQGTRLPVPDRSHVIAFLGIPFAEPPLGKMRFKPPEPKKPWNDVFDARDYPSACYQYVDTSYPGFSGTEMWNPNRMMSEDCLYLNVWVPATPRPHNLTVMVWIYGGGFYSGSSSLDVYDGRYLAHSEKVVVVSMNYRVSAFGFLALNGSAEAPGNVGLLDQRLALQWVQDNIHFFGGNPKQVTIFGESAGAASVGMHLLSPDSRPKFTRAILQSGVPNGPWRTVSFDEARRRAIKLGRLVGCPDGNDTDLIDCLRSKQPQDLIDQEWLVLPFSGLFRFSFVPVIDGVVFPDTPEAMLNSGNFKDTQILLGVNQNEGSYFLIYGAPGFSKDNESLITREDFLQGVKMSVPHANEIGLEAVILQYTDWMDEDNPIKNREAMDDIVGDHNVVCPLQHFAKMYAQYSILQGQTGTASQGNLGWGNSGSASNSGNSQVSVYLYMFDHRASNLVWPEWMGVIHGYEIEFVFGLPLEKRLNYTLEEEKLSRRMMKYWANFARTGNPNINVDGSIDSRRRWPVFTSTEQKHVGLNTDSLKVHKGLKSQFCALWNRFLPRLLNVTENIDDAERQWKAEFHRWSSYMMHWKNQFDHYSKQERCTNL

On to `CC(=O)Oc1ccc(O)cc1` [4-acetoxyphenol], for which, in assay [1], the “Vmax (Michaelis-Menten fit of steady state current)” value was determined as 24.2±1.1 μA and the “current density corresponding to Vmax” value was 121+5.25 μA cm^−2.
Regarding `O.O.O.O.O.O.O.O=[As]([O-])([O-])O.[Na+].[Na+]` [As(V), Na2HAsO4.7H2O], the “sensitivity of the AchE sensor to the species” value in assay [2] is “not sensitive”.
Regarding sodium arsenite [As(III)], in assay [3], the “estimated inhibition (from linear regression)” value is 50.7±5.7%; the inhibition entry was “about 55%”; the maximum inhibition is 69.3% and 65.7%. In assay [3] (pH 8), the IMax is 70-75%; affinity was put at a Ki of 61.6 µM; the “k1 (reversible pseudo-first order model)” value is 47.3 M⁻¹ s⁻¹; the “second (dissociation) rate constant of the reversible pseudo-first order model, symbol not given” value is 0.175 M⁻¹.

B1: Alcalase 2.5 Type DX: Subtilisin, Novozyme, Bacillus licheniformis (protein, UniProt P00780 106-379, looked up)
Subtilisin Carlsberg: AQTVPYGIPLIKADKVQAQGFKGANVKVAVLDTGIQASHPDLNVVGGASFVAGEAYNTDGNGHGTHVAGTVAALDNTTGVLGVAPSVSLYAVKVLNSSGSGSYSGIVSGIEWATTNGMDVINMSLGGASGSTAMKQAVDNAYAKGVVVVAAAGNSGSSGNTNTIGYPAKYDSVIAVGAVDSNSNRASFSSVGAELEVMAPGAGVYSTYPTNTYATLNGTSMASPHVAGAAALILSKHPNLSASQVRNRLSSTATYLGSSFYYGKGLINVEAAAQ
modifications: commercial Novozymes enzyme preparation
notes: Subtilisin, Novozyme, Bacillus licheniformis
For B1, the “Activity with 4-Acetoxyphenol” value in assay [4] turned out to be 1.93 µmol/mg/min.

B2: Lipolase 100 L: Lipase, Novozyme, Thermomyces lanuginosus (protein, UniProt O59952 23-291, looked up)
Lipase: EVSQDLFNQFNLFAQYSAAAYCGKNNDAPAGTNITCTGNACPEVEKADATFLYSFEDSGVGDVTGFLALDNTNKLIVLSFRGSRSIENWIGNLNFDLKEINDICSGCRGHDGFTSSWRSVADTLRQKVEDAVREHPDYRVVFTGHSLGGALATVAGADLRGNGYDIDVFSYGAPRVGNRAFAEFLTVQTGGTLYRITHTNDIVPRLPPREFGYSHSSPEYWIKSGTLVPVTRNDIVKIEGIDATGGNNQPNIPDIPAHLWYFGLIGTCL
modifications: commercial Novozymes enzyme preparation
notes: Lipase, Novozyme, Thermomyces lanuginosus
B2: in assay [4], the “Activity with 4-Acetoxyphenol” value was 1.59 µmol/mg/min.

B3: Palatase 20000 L: Lipase, Novozyme, Rhizomucor miehei (protein, UniProt P19515 95-363, looked up)
Lipase: SIDGGIRAATSQEINELTYYTTLSANSYCRTVIPGATWDCIHCDATEDLKIIKTWSTLIYDTNAMVARGDSEKTIYIVFRGSSSIRNWIADLTFVPVSYPPVSGTKVHKGFLDSYGEVQNELVATVLDQFKQYPSYKVAVTGHSLGGATALLCALDLYQREEGLSSSNLFLYTQGQPRVGDPAFANYVVSTGIPYRRTVNERDIVPHLPPAAFGFLHAGEEYWITDNSPETVQVCTSDLETSDCSNSIVPFTSVLDHLSYFGINTGLCT
For B3, the “Activity with 4-Acetoxyphenol” value in assay [4] came to 3.43 µmol/mg/min.

The values are drawn from patent publication US11422106B2, “Using 4-acetoxyphenol as a substrate for modular hydrolase biosensors” (United States Government, as represented by the …, priority 2019, dated 2022).
